pIC50: −log10 of the molar value.
Experiments:
[1] = system: OPM-2 human multiple myeloma cell line; test: Cell Viability Assay (OPM-2 10 FBS); format: cell-based; conditions: OPM-2 cells, CellTiter-Glo
How it was run: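 IC50 from 4-parameter logistic fit of CellTiter-Glo luminescence. 3000 cells/well, 10% FBS medium, serial compound dilutions, 16 h, 37 °C/5% CO2; read 25 min post-reagent.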

[2] = biological target: T1, Mcl-1/Bim interaction, recombinant human Mcl-1 (171-327) (Homo sapiens, UniProt Q07820); test: Cell free Mcl-1: Bim Affinity Assay (Mcl-1 HTRF); format: binding
T1 construct: made in house
T1 sequence (Q07820 171-327): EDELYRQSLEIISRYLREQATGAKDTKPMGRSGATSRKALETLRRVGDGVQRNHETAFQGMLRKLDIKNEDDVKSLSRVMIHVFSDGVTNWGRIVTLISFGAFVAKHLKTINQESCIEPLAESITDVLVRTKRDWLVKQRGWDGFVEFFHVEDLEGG
How it was run: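 Read-out is time-resolved FRET after overnight incubation, using a biotin-labelled peptide from human Bim (51-76) as the binding partner; IC50 was derived from competition curves.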

[3] = Homo sapiens, OPM-2, 16 h, 16 h
[4] = TR-FRET, 0.1 nM Mcl-1 (171-327), 0.05 nM biotin-Bim (51-76)
[5] = Homo sapiens, OPM-2, 16 h, 16 h incubation
[6] = cell free Mcl-1:Bim TR-FRET, recombinant human Mcl-1 (171-327)

Row | Structure (SMILES) | pIC50 [1, 3] | pIC50 [2, 4] | pIC50 [2, 6] | pIC50 ([1]; 16 h) | also measured
1 | COCCO[C@H]1/C=C\C[C@H](C)N(CCOC)S(=O)(=O)NC(=O)c2ccc3c(c2)N(C[C@@H]2CC[C@H]21)C[C@@]1(CCCc2cc(Cl)ccc21)CO3 (single isomer, unassigned) [Example 65] | 5.93 | 8.62 |  |  | 
2 | C[C@@H]1[C@@H](C)C/C=C/[C@H](O[C@@H]2CCOC2=O)[C@@H]2CC[C@H]2CN2C[C@@]3(CCCc4cc(Cl)ccc43)COc3ccc(cc32)C(=O)NS1(=O)=O (single isomer, unassigned) [Example 428] | 6.75 | 9.48 |  |  | 
3 | C[C@H]1/C=C/[C@H](O)[C@@H]2CC[C@H]2CN2C[C@@]3(CCCc4cc(Cl)ccc43)COc3ccc(cc32)C(=O)NS(=O)(=O)C1 (single isomer, unassigned) [Example 164] |  | 8.84 |  | 4.66 | 
4 | COCCO[C@H]1/C=C/C[C@H](C)[C@H](c2ccccc2)S(=O)(=O)NC(=O)c2ccc3c(c2)N(C[C@@H]2CC[C@H]21)C[C@@]1(CCCc2cc(Cl)ccc21)CO3 (single isomer, unassigned) [Example 671] |  |  | 7.70 | 5.25 | 
5 | C[C@H]1C/C=C/[C@H](O)[C@@H]2CC[C@H]2CN2C[C@@]3(CCCc4cc(Cl)ccc43)COc3ccc(cc32)C(=O)NS(=O)(=O)N1CCN(C)C [Example 76, (1S,3′R,6′R,7′S,8′E,11′S)-6-chloro-12′-(2-(dimethylamino)ethyl)-7′-hydroxy-11′-methyl-3,4-dihydro-2H,15′H-spiro[naphthalene-1,22′-[20]oxa[13]thia[1,12,14]triazatetracyclo[14.7.2.0^3,6.0^19,24]pentacosa[8,16,18,24]tetraen]-15′-one 13′,13′-dioxide] | 6.84 | 9.39 |  |  | 
6 | CNC(=O)CN1CC/C=C/[C@H](O)[C@@H]2CC[C@H]2CN2C[C@@]3(CCCc4cc(Cl)ccc43)COc3ccc(cc32)C(=O)NS1(=O)=O [Example 23, 2-((1S,3′R,6′R,7′S,8′E)-6-chloro-7′-hydroxy-13′,13′-dioxido-15′-oxo-3,4-dihydro-2H,12′H-spiro[naphthalene-1,22′-[20]oxa[13]thia[1,12,14]triazatetracyclo[14.7.2.0^3,6.0^19,24]pentacosa[8,16,18,24]tetraen]-12′-yl)-N-methylacetamide] | 5.49 | 9.50 |  |  | 
7 | Cn1cnc(CO[C@H]2/C=C/C[C@H]3CC[C@@H]3S(=O)(=O)NC(=O)c3ccc4c(c3)N(C[C@@H]3CC[C@H]32)C[C@@]2(CCCc3cc(Cl)ccc32)CO4)n1 [Example 94, (1S,3′R,6′R,7′S,8′E,11′R,14′S)-6-chloro-7′-((1-methyl-1H-1,2,4-triazol-3-yl)methoxy)-3,4-dihydro-2H,17′H-spiro[naphthalene-1,24′-[22]oxa[15]thia[1,16]diazapentacyclo[16.7.2.0^3,6.0^11,14.0^21,26]heptacosa[8,18,20,26]tetraen]-17′-one 15′,15′-dioxide] | 6.37 | 9.33 |  |  | 
8 | Cc1nnc(C[C@H]2CC/C=C/[C@H](O)[C@@H]3CC[C@H]3CN3C[C@@]4(CCCc5cc(Cl)ccc54)COc4ccc(cc43)C(=O)NS2(=O)=O)o1 (single isomer, unassigned) [Example 565] |  |  | 9.22 | 4.90 | 
9 | CNC(=O)[C@@H](OC)[C@@H]1CC[C@@H]2CC[C@H]2CN2C[C@@]3(CCCc4cc(Cl)ccc43)COc3ccc(cc32)C(=O)NS(=O)(=O)[C@H](C)[C@@H](C)C1 (single isomer, unassigned) [Example 363] |  | 9.10 |  | 6.32 | 
10 | O=C1NS(=O)(=O)[C@@H]2CCC[C@@H](/C=C/[C@H](O)[C@@H]3CC[C@H]3CN3C[C@@]4(CCCc5cc(Cl)ccc54)COc4ccc1cc43)C2 (single isomer, unassigned) [Example 105] |  | 9.23 |  | 6.48 | 
11 | CCN1CC/C=C/[C@H](OCC(=O)N2CCCC2)[C@@H]2CC[C@H]2CN2C[C@@]3(CCCc4cc(Cl)ccc43)COc3ccc(cc32)C(=O)NS1(=O)=O [Example 89, (1S,3′R,6′R,7′S,8′E)-6-chloro-12′-ethyl-7′-(2-oxo-2-(1-pyrrolidinyl)ethoxy)-3,4-dihydro-2H,15′H-spiro[naphthalene-1,22′-[20]oxa[13]thia[1,12,14]triazatetracyclo[14.7.2.0^3,6.0^19,24]pentacosa[8,16,18,24]tetraen]-15′-one 13′,13′-dioxide] | 6.10 | 9.18 |  |  | 
12 | COCCO[C@H]1/C=C/C[C@H](C)[C@H](COC)S(=O)(=O)NC(=O)c2ccc3c(c2)N(C[C@@H]2CC[C@H]21)C[C@@]1(CCCc2cc(Cl)ccc21)CO3 (single isomer, unassigned) [Example 464] |  | 8.83 |  | 6.19 | 
13 | CC[C@H]1C/C=C/[C@H](O)[C@@H]2CC[C@H]2CN2C[C@@]3(CCCc4cc(Cl)ccc43)COc3ccc(cc32)C(=O)NS(=O)(=O)N1 (single isomer, unassigned) [Example 686] |  |  | 9.22 | 6.00 | 
14 | CO[C@H]1/C=C/C[C@@H]2COC[C@H]2S(=O)(=O)NC(=O)c2ccc3c(c2)N(C[C@@H]2CC[C@H]21)C[C@@]1(CCCc2cc(Cl)ccc21)CO3 (single isomer, unassigned) [Example 1032] |  | 9.37 |  |  | pIC50 ([1]; 16 h incubation): 6.24
15 | COC[C@@H]1[C@@H](C)C/C=C/[C@H](O)[C@@H]2CC[C@H]2CN2C[C@@]3(CCCc4cc(Cl)ccc43)COc3ccc(cc32)C(=O)NS1(=O)=O (single isomer, unassigned) [Example 455] | 7.15 | 9.78 |  |  | 

Second part, led by results:

Row | pIC50 [1, 3] | pIC50 [2, 4] | pIC50 [2, 6] | Structure (SMILES) | pIC50 ([1]; 16 h) | also measured
16 |  | 8.01 |  | C[C@@H]1CS(=O)(=O)NC(=O)c2ccc3c(c2)N(C[C@@H]2CC[C@H]2C(=O)/C=C/[C@@H]1C)C[C@@]1(CCCc2cc(Cl)ccc21)CO3 (single isomer, unassigned) [Example 1059] |  | pIC50 [1, 5]: 5.31
17 |  | 8.36 |  | CC1C/C=C/[C@@H](O)[C@@H]2CC[C@H]2CN2C[C@@]3(CCCc4cc(Cl)ccc43)COc3ccc(cc32)C(=O)NS(=O)(=O)C1 (stereo in doubt) [Example 1088, (1S,3′R,6′R,7′R,8′E,11′S)-6-chloro-7′-hydroxy-11′-(methyl)-3,4-dihydro-2H,15′H-spiro [naphthalene-1,22′-[20]oxa[13]thia[1,14]diazatetracyclo[14.7.2.0^3,6.0^19,24]pentacosa [8,16,18,24]tetraen]-15′-one 13′,13′-dioxide] |  | pIC50 [1, 5]: 5.05
18 |  | 9.40 |  | CCC1C(C)C(C)C=CC(O)C2CCC2CN2CC3(CCCc4cc(Cl)ccc43)COc3ccc(cc32)C(=O)NS1(=O)=O (single isomer, unassigned) [Example 1055] |  | pIC50 ([1]; 16 h incubation): 6.59
19 | 6.86 |  | 9.31 | C[C@@H]1[C@@H](C)C/C=C/[C@H](OCCN2CCCCC2)[C@@H]2CC[C@H]2CN2C[C@@]3(CCCc4cc(Cl)ccc43)COc3ccc(cc32)C(=O)NS1(=O)=O [Example 723, (1S,3′R,6′R,7′S,8′E,11′5,12′R)-6-chloro-11′,12′-dimethyl-7′-(2-(1-piperidinyl)ethoxy)-3,4-dihydro-2H,15′H-spiro[naphthalene-1,22′-[20]oxa[13]thia[1,14]diazatetracyclo[14.7.2.0^3,6.0^19,24]pentacosa [8,16,18,24]tetraen]-15′-one-13′, 13′-dioxide] |  | 
20 | 4.87 |  | 7.85 | CC[C@@H]1CC/C=C/[C@H](OC)[C@@H]2CC[C@H]2CN2C[C@@]3(CCCc4cc(Cl)ccc43)COc3cc(Cl)c(cc32)C(=O)NS1(=O)=O [Example 688, (1S,3′R,6′R,7′S,8′E,12′R)-6,17′-dichloro-12′-ethyl-7′-methoxy-3,4-dihydro-2H,15′H-spiro[naphthalene-1,22′-[20]oxa[13]thia[1,14]diazatetracyclo[14.7.2.0^3,6.0^19,24]pentacosa [8,16,18,24]tetraen]-15′-one 13′,13′-dioxide] |  | 
21 | 5.94 |  | 9.03 | CC[C@@H]1CC/C=C/[C@H](OC(N)=O)[C@@H]2CC[C@H]2CN2C[C@@]3(CCCc4cc(Cl)ccc43)COc3ccc(cc32)C(=O)NS1(=O)=O [Example 610, (1S,3′R,6′R,7′S,8′E,12′R)-6-chloro-12′-ethyl-13′,13′-dioxido-15′-oxo-3,4-dihydro-2H-spiro[naphthalene-1,22′-[20]oxa[13]thia[1,14]diazatetracyclo[14.7.2.0^3,6.0^19,24]pentacosa [8,16,18,24]tetraen]-7′-yl carbamate] |  | 
22 | 7.27 |  | 9.49 | C[C@@H]1[C@@H](C)C/C=C/[C@H](OCCN2CCOCC2)[C@@H]2CC[C@H]2CN2C[C@@]3(CCCc4cc(Cl)ccc43)COc3ccc(cc32)C(=O)NS1(=O)=O [Example 720, (1S,3′R,6′R,7′S,8′E,11′S,12′R)-6-chloro-11′,12′-dimethyl-7′-(2-(4-morpholinyl)ethoxy)-3,4-dihydro-2H,15′H-spiro[naphthalene-1,22′-[20]oxa[13]thia[1,14]diazatetracyclo[14.7.2.0^3,6.0^19,24]pentacosa [8,16,18,24]tetraen]-15′-one-13′, 13′-dioxide] |  | 
23 |  | 9.45 |  | C[C@@H]1C[C@@H](C)/C=C/[C@H](OCCN2CCOCC2)[C@@H]2CC[C@H]2CN2C[C@@]3(CCCc4cc(Cl)ccc43)COc3ccc(cc32)C(=O)NS1(=O)=O [Example 1018, (1S,3′R,6′R,7′S,8′E,10′R,12′R)-6-chloro-10′,12′-dimethyl-7′-(2-(4-morpholinyl)ethoxy)-3,4-dihydro-2H,15′H-spiro[naphthalene-1,22′-[20]oxa[13]thia[1,14]diazatetracyclo[14.7.2.0^3,6.0^19,24]pentacosa [8,16,18,24]tetraen]-15′-one 13′,13′-dioxide] |  | pIC50 [1, 5]: 6.55

From patent US12091425B2 (AMGEN INC., priority 2016, dated 2024)
